Experiments:
tubulin = system: tubulin; parameters: method as in Miller et al., 1997; conditions: ref Miller et al., 1997; read-out: IC50, inhibition of polymerization of tubulin; cited from earlier work
[1] = system: HeLa (cervical cancer) cells; test: MTT cell proliferation assay, HeLa; type: cell-based; conditions: Homo sapiens, 48 h, read-out: IC50 values (mean ± SEM) HeLa
Description: (§1) We conducted an in vitro MTT assay to evaluate the anti-cancer activity of the synthesized neo-tanshinlactone–chalcone hybrid compounds, 26–37, against four human cancer cell lines, namely, MCF-7 (breast cancer), MDA-MB-231 (breast cancer), Ishikawa (endometrial cancer), and HeLa (cervical cancer). The toxicity of the hybrid molecules on the normal human embryonic kidney cell line HEK-293 was also evaluated.
(§2) The synthesized hybrid compounds were tested for their anti-cancer activity using the MTT reduction assay on 2.5 × 10^3 cells per well that were seeded in 100 µL DMEM supplemented with 10% FBS in each well of 96-well microculture plates. After seeding, the cells were incubated for 24 h at 37°C in a CO2 incubator. The required concentrations of the compounds were achieved by diluting the solutions in the culture medium. The media was removed from the wells after 48 h, and 100 µL of MTT (0.5 mg/mL) was added to each well. The plates were then incubated for an additional 3 h. After carefully removing the supernatant from each well, the formazan crystals were dissolved in 100 µL of DMSO. The absorbance was then recorded at a wavelength of 540 nm ([Saquib et al., 2021]; [Gupta et al., 2022]; [Iqbal et al., 2023])

[2] = system: Ishikawa (endometrial cancer) cells; test: MTT cell proliferation assay, Ishikawa; type: cell-based; conditions: Homo sapiens, 48 h, read-out: IC50 values (mean ± SEM) Ishikawa
Description: as §1
MCF-7, MDA-MB231, and HEK293 cell lines were purchased from ATCC (Manassas, VA, United States). Ishikawa cell lines were obtained from the European Collection of Cell Cultures. They were maintained in Dulbecco’s modified Eagle medium (DMEM) supplemented with 10% fetal bovine serum (FBS). Cells were cultured at 37°C and 5% CO2. Before the experiments, cells were cultured in phenol red-free DMEM supplemented with 10% charcoal stripped fetal bovine serum.
as §2

[3] = system: MCF-7 (breast cancer) cells; test: MTT cell proliferation assay, MCF-7; type: cell-based; conditions: Homo sapiens, MCF7, MCF-7 (ER +ve), 48 h, read-out: IC50 values (mean ± SEM) MCF-7
Description: (§3) MCF-7, MDA-MB231, and HEK293 cell lines were purchased from ATCC (Manassas, VA, United States). […] They were maintained in Dulbecco’s modified Eagle medium (DMEM) supplemented with 10% fetal bovine serum (FBS). Cells were cultured at 37°C and 5% CO2. Before the experiments, cells were cultured in phenol red-free DMEM supplemented with 10% charcoal stripped fetal bovine serum.

[4] = system: MDA-MB-231 (breast cancer) cells; test: MTT cell proliferation assay, MDA-MB-231; type: cell-based; conditions: Homo sapiens, MDA-MB-231 (ER -ve), 48 h, read-out: IC50 values (mean ± SEM) MDA-MB-231
Description: as §3

[5] = system: normal human embryonic kidney cell line HEK-293; test: MTT assay, toxicity on normal cell line HEK-293; type: cell-based; conditions: HEK293, normal HEK-293 cells (toxicity), 48 h, read-out: IC50 values (mean ± SEM) HEK-293
Description: as §3

COc1cc2c(ccc1=O)[C@H]1CC[C@]3(C)[C@@H](O)CC[C@H]3[C@@H]1CC2 [2-Methoxyestradiol–colchicine hybrid A]
IC50 (tubulin): 2.1 µM

COc1cc2c(cc1O)CC[C@@H]1[C@@H]2CC[C@]2(C)[C@@H](O)CC[C@@H]12 [2-methoxyestradiol (2-ME), 2-methoxyestradiol]
IC50 (tubulin): 14.2 µM

COc1cc(OC)cc(C(=O)/C=C/c2cc(=O)oc3c2ccc2ccccc23)c1 [Compound 26, (E)-4-(3-(3,5-Dimethoxyphenyl)-3-oxoprop-1-en-1-yl)-2H-benzo[h]chromen-2-one]
melting point: 272 to 273 °C
IC50 [1]: > 20 µM
IC50 [2]: > 20 µM
IC50 [3]: 17.2 ± 1.75 µM
IC50 [4]: 16.6 ± 1.25 µM
IC50 [5]: > 20 µM

COc1ccc(C(=O)/C=C/c2cc(=O)oc3c2ccc2ccccc23)cc1 [Compound 27, (E)-4-(3-(4-Methoxyphenyl)-3-oxoprop-1-enyl)-2H-benzo[h]chromen-2-one]
IC50 [1]: > 20 µM
IC50 [2]: 17.4 ± 2.72 µM
IC50 [3]: > 20 µM
IC50 [4]: > 20 µM
IC50 [5]: > 20 µM

COc1ccc(C(=O)/C=C/c2cc(=O)oc3c2ccc2c(OC)cccc23)cc1 [Compound 28, (E)-7-Methoxy-4-(3-(4-methoxyphenyl)-3-oxoprop-1-enyl)-2H-benzo[h]chromen-2-one]
melting point: 236 to 237 °C
IC50 [1]: > 20 µM
IC50 [2]: > 20 µM
IC50 [3]: 18.6 ± 2.3 µM
IC50 [4]: > 20 µM
IC50 [5]: > 20 µM

COc1cccc2c1ccc1c(/C=C/C(=O)c3ccccc3)cc(=O)oc12 [Compound 29, (E)-7-Methoxy-4-(3-oxo-3-phenylprop-1-en-1-yl)-2H-benzo[h]chromen-2-one]
melting point: 180 to 182 °C
IC50 [1]: > 20 µM
IC50 [2]: > 20 µM
IC50 [3]: > 20 µM
IC50 [4]: > 20 µM
IC50 [5]: > 20 µM

COc1cc(OC)cc(C(=O)/C=C/c2cc(=O)oc3c2ccc2c(OC)cccc23)c1 [Compound 30, (E)-4-(3-(3,5-Dimethoxyphenyl)-3-oxoprop-1-en-1-yl)-7-methoxy-2H-benzo[h]chromen-2-one]
IC50 [3]: 6.8 ± 1.48 µM
IC50 [4]: 8.5 ± 1.12 µM
IC50 [5]: > 20 µM

COc1cc(C(=O)/C=C/c2cc(=O)oc3c2ccc2ccccc23)cc(OC)c1OC [Compound 31, (E)-4-(3-Oxo-3-(3,4,5-trimethoxyphenyl)prop-1-enyl)-2H-benzo[h]chromen-2-one]
IC50 [1]: > 20 µM
IC50 [2]: > 20 µM
IC50 [3]: 14.4 ± 1.68 µM
IC50 [4]: 15.7 ± 1.01 µM
IC50 [5]: > 20 µM

O=C(/C=C/c1cc(=O)oc2c1ccc1ccccc12)c1ccccc1 [Compound 32, (E)-4-(3-Oxo-3-phenylprop-1-enyl)-2H-benzo[h]chromen-2-one]
melting point: 245 to 246 °C
IC50 [1]: > 20 µM
IC50 [2]: > 20 µM
IC50 [3]: > 20 µM
IC50 [4]: > 20 µM
IC50 [5]: > 20 µM

COc1cc(C(=O)/C=C/c2cc(=O)oc3c2ccc2c(OC)cccc23)cc(OC)c1OC [Compound 33, (E)-7-Methoxy-4-(3-oxo-3-(3,4,5-trimethoxyphenyl)prop-1-enyl)-2H-benzo[h] chromen-2-one]
melting point: > 260 °C
IC50 [1]: > 20 µM
IC50 [2]: > 20 µM
IC50 [3]: 16.3 ± 2.3 µM
IC50 [4]: > 20 µM
IC50 [5]: > 20 µM

O=C(/C=C/c1cc(=O)oc2c1ccc1ccccc12)c1ccc(Cl)cc1 [Compound 34]
IC50 [1]: > 20 µM
IC50 [2]: > 20 µM
IC50 [3]: > 20 µM
IC50 [4]: > 20 µM
IC50 [5]: > 20 µM

COc1cccc2c1ccc1c(/C=C/C(=O)c3ccc(Cl)cc3)cc(=O)oc12 [Compound 35]
IC50 [1]: > 20 µM
IC50 [2]: > 20 µM
IC50 [3]: > 20 µM
IC50 [4]: > 20 µM
IC50 [5]: > 20 µM

O=C(/C=C/c1cc(=O)oc2c1ccc1ccccc12)c1ccc(Cl)c(Cl)c1 [Compound 36]
IC50 [1]: 16.8 ± 3.14 µM
IC50 [2]: 19.2 ± 3.12 µM
IC50 [3]: > 20 µM
IC50 [4]: > 20 µM
IC50 [5]: > 20 µM

COc1cccc2c1ccc1c(/C=C/C(=O)c3ccc(Cl)c(Cl)c3)cc(=O)oc12 [Compound 37]
IC50 [1]: 17.2 ± 2.88 µM
IC50 [2]: 18.6 ± 2.56 µM
IC50 [3]: > 20 µM
IC50 [4]: > 20 µM
IC50 [5]: > 20 µM

— PMC10511752, “Natural product-inspired synthesis of coumarin–chalcone hybrids as potential anti-breast cancer agents” (Frontiers in Pharmacology, 2023)
